Assay results published in US12497356B2, “Stable formulation of arylsulfonylpropenenitriles” (KEMIRA OYJ, priority 2019, dated 2025).

How the values were obtained:
[1] = Stability with different solvents (initial tests, HPLC-DAD); type: physicochemical; settings: room temperature
Description: The stability of (E)-3-tosylacrylonitrile in different solvents, concentrations and temperatures was studied. The initial tests were conducted at room temperature and the tested solvents were i) propylene carbonate; ii) ethanol; iii) dimethylsulfoxide (DMSO); iv) combination of 35% ethanol-65% propylene glycol; v) water at pH 4; and water at pH 8. The amount of (E)-3-tosylacrylonitrile was analysed with HPLC-DAD. For sample pre-treatment, an approximately 1.45 mg/ml solution of (E)-3-tosylacrylonitrile was prepared in acetonitrile and the solution was analysed by HPLC. Quantification was performed using external (ESTD) calibration with authentic standards. Results from the initial tests with propylene carbonate, ethanol, dimethylsulfoxide, 35% ethanol-65% propylene glycol, and water are presented in FIG. 1.

[2] = Long-time stability in propylene carbonate (second round of tests, HPLC-DAD); type: physicochemical
Description: The amount of (E)-3-tosylacrylonitrile was analysed with HPLC-DAD. For sample pre-treatment, an approximately 1.45 mg/ml solution of (E)-3-tosylacrylonitrile was prepared in acetonitrile and the solution was analysed by HPLC. Quantification was performed using external (ESTD) calibration with authentic standards. After the initial tests, a second round of tests were conducted with propylene carbonate. The stability of (E)-3-tosylacrylonitrile in propylene carbonate was tested at 10 mg/ml and 50 mg/ml concentrations and at different temperatures. The effect of light on the stability was also examined (FIGS. 2 and 3).

- dissolving in propylene carbonate ([1]; propylene carbonate): dissolved immediately
- stability in propylene carbonate (short-term) ([1]; propylene carbonate): stable for at least one month
- final concentration of (E)-3-tosylacrylonitrile after 6 months ([2]; 10 mg/ml and 50 mg/ml, all tested conditions (different temperatures, light), 6 months): above 90%
- degradation in propylene carbonate ([2]; 10 and 50 mg/ml): slow
- stability in propylene carbonate ([2]; 10 and 50 mg/ml, different temperatures, light): good even in harsh conditions
Structure (SMILES): Cc1ccc(S(=O)(=O)/C=C/C#N)cc1 [(E)-3-tosylacrylonitrile]
- dissolving in the tested solvent ([1]; most tested solvents (ethanol, DMSO, 35% ethanol-65% propylene glycol, water pH 4, water pH 8)): did not dissolve thoroughly in the tested solvent or dissolving continued for several days
